Publication PMC7272617 (Scientific Reports, 2020)
Values after ≈ are worked out from the molar mass of the structure shown. Where a SMILES comes first, the peptide text is derived from it.

Key:
[1] = system: MDR P. aeruginosa clinical isolate No.3; settings: MDR clinical isolate No.3, 24 h
[2] = system: MDR P. aeruginosa clinical isolate No.12
P. aeruginosa ATCC 27853 [3] = settings: ATCC 27853, 24 h
[4] = system: Staphylococcus aureus ATCC 25923; settings: ATCC 25923, 24 h
[5] = system: L929 mouse fibroblast cells; assay: Cytotoxicity, MTT viability assay; settings: 3.91 µg/ml, 24 h
[6] = system: MDR P. aeruginosa clinical isolate No.10; settings: MDR clinical isolate No.10, 24 h
[7] = system: MDR P. aeruginosa clinical isolate No.6; settings: MDR clinical isolate No.6, 24 h
[8] = system: MDR P. aeruginosa clinical isolate No.8; settings: MDR clinical isolate No.8, 24 h
[9] = system: MDR P. aeruginosa isolates; assay: MIC against all tested MDR P. aeruginosa isolates; assay type: cell-based, Pseudomonas aeruginosa; settings: times higher than ciprofloxacin
[10] = system: Vibrio cholera O1 Inaba DMST 16261; settings: MHB, 37 °C, 24 h
[11] = system: Escherichia coli O157:H7 MT strain; settings: E. coli O157:H7 MT strain; MHB, 37 °C, 24 h
P. aeruginosa ATCC 27853 [12] = assay: Membrane-penetrating activity of TAMRA-labelled peptide, flow cytometry; assay type: cell-based, Pseudomonas aeruginosa; settings: 1 × MIC, measured with TAMRA-labelled PA-13
Protocol: To clarify whether bacterial membrane permeabilization resulted from peptide uptake, the interaction of TAMRA-labelled PA-13 with the membrane of bacteria cells was investigated by flow cytometry. […] After incubation, unbound labelled peptide was removed by washing with PBS. Then the fluorescence signal from treated cells was determined by flow cytometry (CytoFlex, Beckman Coulter).

[13] = system: all Gram-negative strains; assay: Mean MIC and therapeutic index, Gram-negative strains; assay type: cell-based; settings: 7 Gram-negative strains of Table 3
[14] = system: MDR P. aeruginosa clinical isolate No.2; settings: MDR clinical isolate No.2, 24 h
[15] = system: MDR P. aeruginosa clinical isolate No.5; settings: MDR clinical isolate No.5, 24 h
[16] = system: Salmonella Typhimurium ATCC 13311; settings: ATCC 13311, 24 h
P. aeruginosa ATCC 27853 [17] = assay: Salt sensitivity: MIC in the presence of physiological salts; assay type: cell-based, Pseudomonas aeruginosa
Protocol: The antimicrobial activity of the peptides was determined against both Gram-positive and -negative bacteria including 14 MDR P. aeruginosa clinical isolates from Bhumibol Adulyadej Hospital (Tables 1 and 3). The minimal inhibitory concentration (MIC) of each peptide was measured according to a modification of the National Committee for Clinical Laboratory Standards (NCCLS) broth microdilution method as previously described. Briefly, bacterial cells in mid-log phase were cultured in Müeller-Hinton broth (MHB) and then diluted to 10^7 CFU/ml. Fifty microliters of 2-fold serially diluted peptides, with concentrations ranging from 0.98 to 250 μg/ml in 0.01% (vol/vol) acetic acid and 0.2% (wt/vol) bovine serum albumin (BSA, Sigma), were added to each well of sterile 96-well plates, followed by 50 μl of bacterial solution. Plates were incubated at 37 °C for 24 h, and MICs were defined as the lowest concentration of peptide that prevented visible turbidity. Cultures without peptides and uninoculated MHB were employed as positive and negative controls, respectively. Colony count assays were performed to determine the minimal bactericidal concentrations (MBCs) for determination of time-killing activity. As previously described, a 50 μl aliquot from each non-turbid well identified in the MIC determination experiment was spread on agar plates. MBCs were defined as the lowest concentration of peptides where no colony growth was observed on agar plates after 24 h incubation at 37 °C.
To test the effect of salts on the antibacterial activity of PA-13, the mid-logarithmic phase (10^7 CFU/ml) of P. aeruginosa ATCC 27853 was exposed to different concentrations of PA-13 in the presence of different physiological salts: 150 mM NaCl; 4.5 mM KCl; 1 mM MgCl2; 6 µM NH4Cl; 8 µM ZnCl2; 4 µM FeCl3; […][22]. After these treatments, the MICs were determined as described above.

[18] = system: Acinetobacter baumannii MT strain; settings: MT strain, 24 h
[19] = system: MDR P. aeruginosa clinical isolate No.4; settings: MDR clinical isolate No.4, 24 h

CC[C@H](C)[C@H](NC(=O)[C@H](CCCNC(=N)N)NC(=O)[C@H](CCCCN)NC(=O)[C@H](C)NC(=O)[C@@H](NC(=O)[C@@H](N)CCCCN)[C@@H](C)CC)C(=O)N[C@@H](Cc1c[nH]c2ccccc12)C(=O)N[C@@H](CCCCN)C(=O)N[C@H](C(=O)N[C@@H](CC(C)C)C(=O)N[C@@H](CCCNC(=N)N)C(=O)N[C@@H](CCCNC(=N)N)C(=O)N[C@@H](CCCNC(=N)N)C(N)=O)[C@@H](C)CC [PA-13] (H-KIAKRIWKILRRR-NH2; N-terminus assumed)
MIC [1]: 7.81 µg/mL (≈ 4.5 µM) | MIC [2]: 3.91 µg/mL (≈ 2.25 µM) | MBC (P. aeruginosa ATCC 27853 [3]): 7.81 µg/mL (≈ 4.5 µM) | MIC [4]: 62.5 µg/mL (≈ 36 µM) | L929 cell survival at the MIC [5]: up to 90% | MIC [6]: 7.81 µg/mL (≈ 4.5 µM) | MIC [7]: 7.81 µg/mL (≈ 4.5 µM) | MIC [8]: 7.81 µg/mL (≈ 4.5 µM) | antimicrobial activity relative to ciprofloxacin [9]: 8-64 times | MIC [10]: 31.25 µg/mL (≈ 18 µM) | MIC [11]: 31.25 µg/mL (≈ 18 µM) | time to binding and penetration (P. aeruginosa ATCC 27853 [12]): ≤ 5 min | GM (Gr.− strains): geometric mean of MIC values from all Gram-negative strains [13]: 15.90 µg/mL | MIC [14]: 7.81 µg/mL (≈ 4.5 µM) | MIC [15]: 7.81 µg/mL (≈ 4.5 µM) | MIC [16]: 1.95 µg/mL (≈ 1.12 µM) | MIC in the presence of FeCl3 (P. aeruginosa ATCC 27853 [17]; 4 µM FeCl3, unit inferred): 3.91 µg/mL | MIC in the presence of NH4Cl (P. aeruginosa ATCC 27853 [17]; 6 µM NH4Cl, unit inferred): 3.91 µg/mL | MIC in the presence of ZnCl2 (P. aeruginosa ATCC 27853 [17]; 8 µM ZnCl2, unit inferred): 3.91 µg/mL | MIC in the presence of MgCl2 (P. aeruginosa ATCC 27853 [17]; 1 mM MgCl2, unit inferred): 31.2 µg/mL | increase of MIC in the presence of K+ (P. aeruginosa ATCC 27853 [17]; 4.5 mM KCl versus control): 2 fold | MIC in the presence of KCl (P. aeruginosa ATCC 27853 [17]; 4.5 mM KCl, unit inferred): 7.81 µg/mL | MIC in the presence of NaCl (P. aeruginosa ATCC 27853 [17]; 150 mM NaCl, unit inferred): 31.2 µg/mL | MIC in the presence of CaCl2 (P. aeruginosa ATCC 27853 [17]; […] CaCl2, unit inferred): 3.91 µg/mL | MIC, control (P. aeruginosa ATCC 27853 [17]; absence of physiological salts, unit inferred): 3.91 µg/mL | MIC [18]: 7.81 µg/mL (≈ 4.5 µM) | MIC [19]: 7.81 µg/mL (≈ 4.5 µM)
